Laboratory results: patent US9113629B2, “4-amino-6-(4-substituted-phenyl)-picolinates and 6-amino-2-(4-substituted-phenyl)-pyrimidine-4-carboxylates and their use as herbicides” (DOW AGROSCIENCES LLC, priority 2013, dated 2015)

Tests used:
LAMSS = assay: Post-emergent Test III, herbicidal activity in wheat and barley; format: in vivo
Procedure, shortened: (§1)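 GR20, GR50, GR80 and GR90 come from probit analysis of visual injury scores (0 = none, 100 = complete kill) taken 21 d after treatment. Foliar application was by track sprayer delivering 187 L/ha at five rates, from high down to 1/16×, onto greenhouse plants at the 2–3 leaf stage, with solvent-blank controls.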

[1] = test system: ALOMY: black-grass (Alopecurus myosuroides); assay: as above; format: in vivo
Procedure, shortened: as §1

[2] = test system: KCHSC: kochia (Kochia scoparia); assay: as above; format: in vivo
Procedure, shortened: as §1

[3] = test system: APESV: bentgrass (Apera spica-venti); assay: as above; format: in vivo
Procedure, shortened: as §1

[4] = test system: TRZSS: wheat, including spring and winter (Triticum aestivum); assay: as above; format: in vivo
Procedure, shortened: as §1

[5] = test system: LOLSS: ryegrass including, Italian ryegrass (Lolium multiflorum), rigid ryegrass (Lolium rigidum), annual ryegrass (Lolium multiflorum subsp. Gaudini); assay: as above; format: in vivo; conditions: probit analysis, 21 days after application
Procedure, shortened: as §1

[6] = test system: MATSS: scented mayweed (Matricaria chamomilla), pineappleweed (Matricaria matricarioides); assay: as above; format: in vivo
Procedure, shortened: as §1

[7] = test system: HORSS: barley, including spring and winter (Hordeum vulgare); assay: as above; format: in vivo
Procedure, shortened: as §1

[8] = test system: SETVI: green foxtail (Setaria viridis); assay: as above; format: in vivo
Procedure, shortened: as §1

[9] = as above; format: in vivo, Lolium multiflorum, Lolium rigidum; conditions: Lolium multiflorum, post-emergence, 504 h, read-out: Visual Growth Reduction (%) 21 Days After Application LOLSS
Procedure, shortened: as §1

[10] = probit analysis, dose for growth reduction of 50 percent, 21 days after application
[11] = probit analysis, dose for growth reduction of 80 percent, 21 days after application
[12] = probit analysis, dose for growth reduction of 20 percent, 21 days after application, crop

SMILES: COC(=O)c1nc(-c2ccc(Cl)c(F)c2)c(F)c(N)c1Cl [Compound 216]
- pest or weed control at 35 g/ha (LAMSS; post-emergence, 504 h, 35 g ai/ha, read-out: Visual Growth Reduction (%) 21 Days After Application LAMSS): 95 to 100%
- pest or weed control at 70 g/ha (LAMSS; post-emergence, 504 h, 70 g ai/ha, read-out: Visual Growth Reduction (%) 21 Days After Application LAMSS): 95 to 100%
- pest or weed control at 140 g/ha (LAMSS; post-emergence, 504 h, 140 g ai/ha, read-out: Visual Growth Reduction (%) 21 Days After Application LAMSS): 95 to 100%
- GR50 LAMSS (LAMSS; [10]): 1 g ai/ha
- GR80 LAMSS (LAMSS; [11]): 1 g ai/ha
- pest or weed control at 35 g/ha ([1]; Alopecurus myosuroides, post-emergence, 504 h, 35 g ai/ha, read-out: Visual Growth Reduction (%) 21 Days After Application ALOMY): 45 to 59%
- pest or weed control at 70 g/ha ([1]; Alopecurus myosuroides, post-emergence, 504 h, 70 g ai/ha, read-out: Visual Growth Reduction (%) 21 Days After Application ALOMY): 60 to 74%
- pest or weed control at 140 g/ha ([1]; Alopecurus myosuroides, post-emergence, 504 h, 140 g ai/ha, read-out: Visual Growth Reduction (%) 21 Days After Application ALOMY): 75 to 84%
- GR50 ALOMY [1, 10]: 54 g ai/ha
- GR80 ALOMY [1, 11]: >140 g ai/ha
- pest or weed control at 35 g/ha ([2]; Bassia scoparia, post-emergence, 504 h, 35 g ai/ha, read-out: Visual Growth Reduction (%) 21 Days After Application KCHSC): 95 to 100%
- pest or weed control at 70 g/ha ([2]; Bassia scoparia, post-emergence, 504 h, 70 g ai/ha, read-out: Visual Growth Reduction (%) 21 Days After Application KCHSC): 95 to 100%
- pest or weed control at 140 g/ha ([2]; Bassia scoparia, post-emergence, 504 h, 140 g ai/ha, read-out: Visual Growth Reduction (%) 21 Days After Application KCHSC): 95 to 100%
- GR50 KCHSC [2, 10]: 1 g ai/ha
- GR80 KCHSC [2, 11]: 2 g ai/ha
- pest or weed control at 35 g/ha ([3]; Apera spica-venti, post-emergence, 504 h, 35 g ai/ha, read-out: Visual Growth Reduction (%) 21 Days After Application APESV): 85 to 94%
- pest or weed control at 70 g/ha ([3]; Apera spica-venti, post-emergence, 504 h, 70 g ai/ha, read-out: Visual Growth Reduction (%) 21 Days After Application APESV): 85 to 94%
- pest or weed control at 140 g/ha ([3]; Apera spica-venti, post-emergence, 504 h, 140 g ai/ha, read-out: Visual Growth Reduction (%) 21 Days After Application APESV): 95 to 100%
- GR50 APESV [3, 10]: 6 g ai/ha
- GR80 APESV [3, 11]: 20 g ai/ha
- pest or weed control at 35 g/ha ([4]; Triticum aestivum, post-emergence, 504 h, 35 g ai/ha, read-out: Visual Growth Reduction (%) 21 Days After Application TRZSS): 75 to 84%
- pest or weed control at 70 g/ha ([4]; Triticum aestivum, post-emergence, 504 h, 70 g ai/ha, read-out: Visual Growth Reduction (%) 21 Days After Application TRZSS): 85 to 94%
- pest or weed control at 140 g/ha ([4]; Triticum aestivum, post-emergence, 504 h, 140 g ai/ha, read-out: Visual Growth Reduction (%) 21 Days After Application TRZSS): 85 to 94%
- GR20 TRZSS [4, 12]: 1 g ai/ha
- GR50 LOLSS ([5]; dose for growth reduction of 50 percent): 137 g ai/ha
- GR80 LOLSS ([5]; dose for growth reduction of 80 percent): >140 g ai/ha
- pest or weed control at 35 g/ha ([6]; Matricaria chamomilla, post-emergence, 504 h, 35 g ai/ha, read-out: Visual Growth Reduction (%) 21 Days After Application MATSS): 75 to 84%
- pest or weed control at 70 g/ha ([6]; Matricaria chamomilla, post-emergence, 504 h, 70 g ai/ha, read-out: Visual Growth Reduction (%) 21 Days After Application MATSS): 75 to 84%
- pest or weed control at 140 g/ha ([6]; Matricaria chamomilla, post-emergence, 504 h, 140 g ai/ha, read-out: Visual Growth Reduction (%) 21 Days After Application MATSS): 85 to 94%
- GR50 MATSS [6, 10]: 10 g ai/ha
- GR80 MATSS [6, 11]: 62 g ai/ha
- pest or weed control at 35 g/ha ([7]; Hordeum vulgare, post-emergence, 504 h, 35 g ai/ha, read-out: Visual Growth Reduction (%) 21 Days After Application HORSS): 85 to 94%
- pest or weed control at 70 g/ha ([7]; Hordeum vulgare, post-emergence, 504 h, 70 g ai/ha, read-out: Visual Growth Reduction (%) 21 Days After Application HORSS): 85 to 94%
- pest or weed control at 140 g/ha ([7]; Hordeum vulgare, post-emergence, 504 h, 140 g ai/ha, read-out: Visual Growth Reduction (%) 21 Days After Application HORSS): 85 to 94%
- GR20 HORSS [7, 12]: 1 g ai/ha
- pest or weed control at 35 g/ha ([8]; Setaria viridis, post-emergence, 504 h, 35 g ai/ha, read-out: Visual Growth Reduction (%) 21 Days After Application SETVI): 60 to 74%
- pest or weed control at 70 g/ha ([8]; Setaria viridis, post-emergence, 504 h, 70 g ai/ha, read-out: Visual Growth Reduction (%) 21 Days After Application SETVI): 75 to 84%
- pest or weed control at 140 g/ha ([8]; Setaria viridis, post-emergence, 504 h, 140 g ai/ha, read-out: Visual Growth Reduction (%) 21 Days After Application SETVI): 85 to 94%
- GR50 SETVI [8, 10]: 20 g ai/ha
- GR80 SETVI [8, 11]: 64 g ai/ha
- pest or weed control at 35 g/ha ([9]; 35 g ai/ha): 0 to 29%
- pest or weed control at 70 g/ha ([9]; 70 g ai/ha): 30 to 44%
- pest or weed control at 140 g/ha ([9]; 140 g ai/ha): 45 to 59%
